Test results taken from patent US20120264735A1 (priority 2009, published 2012).

Target: T1, c-Met kinase (recombinant c-Met) (Homo sapiens, UniProt P08581)
T1 construct: 0.27 nM recombinant c-Met
Test: In vitro kinase assay I (homogeneous time-resolved fluorescence tyrosine kinase assay)
Assay type: biochemical
Procedure, shortened: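 Biotinylated peptide (0.5 μM) phosphorylated by 0.2 nM recombinant c-Met with 50 μM MgATP, 60 min at room temperature, pH 7.4, 5% DMSO. EDTA stop; HTRF read with Eu-anti-phosphotyrosine antibody and streptavidin-APC. IC50 from 4-parameter logistic fit.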

T1 sequence (P08581 25-1390): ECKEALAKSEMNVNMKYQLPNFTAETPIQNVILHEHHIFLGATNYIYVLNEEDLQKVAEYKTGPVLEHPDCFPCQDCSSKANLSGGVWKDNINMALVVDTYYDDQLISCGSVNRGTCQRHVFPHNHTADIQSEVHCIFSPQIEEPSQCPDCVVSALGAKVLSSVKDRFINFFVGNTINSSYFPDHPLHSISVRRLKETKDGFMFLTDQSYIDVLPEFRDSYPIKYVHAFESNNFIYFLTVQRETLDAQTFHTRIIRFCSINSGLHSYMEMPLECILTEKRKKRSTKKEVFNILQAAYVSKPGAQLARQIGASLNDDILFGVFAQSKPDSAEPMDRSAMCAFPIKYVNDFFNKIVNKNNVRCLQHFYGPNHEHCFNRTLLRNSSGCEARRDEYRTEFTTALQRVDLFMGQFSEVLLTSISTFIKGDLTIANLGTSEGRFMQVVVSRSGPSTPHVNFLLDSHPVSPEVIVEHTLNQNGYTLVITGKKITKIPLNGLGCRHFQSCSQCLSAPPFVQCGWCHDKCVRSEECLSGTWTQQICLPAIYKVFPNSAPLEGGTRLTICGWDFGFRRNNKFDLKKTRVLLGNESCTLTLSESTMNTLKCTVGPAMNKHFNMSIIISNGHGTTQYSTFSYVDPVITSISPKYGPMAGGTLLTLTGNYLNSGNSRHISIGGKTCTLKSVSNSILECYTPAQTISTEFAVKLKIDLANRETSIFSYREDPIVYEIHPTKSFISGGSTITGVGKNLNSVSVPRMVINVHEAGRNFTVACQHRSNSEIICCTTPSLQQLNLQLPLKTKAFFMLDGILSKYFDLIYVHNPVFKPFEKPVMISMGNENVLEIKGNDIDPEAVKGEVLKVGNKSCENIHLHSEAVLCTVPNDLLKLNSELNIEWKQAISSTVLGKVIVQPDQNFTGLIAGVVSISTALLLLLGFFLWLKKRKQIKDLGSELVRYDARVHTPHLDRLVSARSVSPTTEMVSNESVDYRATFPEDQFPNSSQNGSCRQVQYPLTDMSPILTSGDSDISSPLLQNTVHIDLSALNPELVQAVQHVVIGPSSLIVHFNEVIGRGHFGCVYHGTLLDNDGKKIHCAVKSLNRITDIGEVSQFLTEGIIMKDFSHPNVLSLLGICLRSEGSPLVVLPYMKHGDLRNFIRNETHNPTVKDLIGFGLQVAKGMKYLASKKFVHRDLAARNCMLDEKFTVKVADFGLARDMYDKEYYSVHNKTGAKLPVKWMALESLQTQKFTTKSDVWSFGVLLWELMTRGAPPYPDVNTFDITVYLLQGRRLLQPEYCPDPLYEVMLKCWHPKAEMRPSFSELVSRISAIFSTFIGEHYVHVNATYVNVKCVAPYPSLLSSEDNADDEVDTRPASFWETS

| IC50 [nM] | Structure (SMILES) |
| --- | --- |
| < 100 | Cn1cc(-n2ccc(=O)c(Cc3cccc(-c4ncc(CN5CCC(N)CC5)cn4)c3)n2)cn1 [compound 434, 3-(3-{5-[(4-aminopiperidin-1-yl)methyl]pyrimidin-2-yl}benzyl)-1-(1-methyl-1H-pyrazol-4-yl)pyridazin-4(1H)-one] |
| < 100 | COCCN(C)c1cnc(-c2cccc(Cc3nn(-c4cnn(C)c4)ccc3=O)c2)nc1 [compound 457, 3-(3-{5-[(2-methoxyethyl) (methyl)amino]pyrimidin-2-yl}benzyl)-1-(1-methyl-1H-pyrazol-4-yl)pyridazin-4(1H)-one] |
| < 100 | CCOc1cnc(-c2cccc(Cc3nn(-c4cnn(C)c4F)cc(F)c3=O)c2)nc1 [compound 752] |
